The values that follow come from US5230998A, “Method for the prescreening of drugs targeted to the V3 hypervariable loop of the HIV-1 envelope glycoprotein gp 120” (priority 1991, dated 1993).

Assay [1] addresses T1, HIV-1 gp120 V3 hypervariable loop (Human immunodeficiency virus type 1 group M subtype B, UniProt P03375).
T1 construct: Polystyrene plates coated with recombinant gp120 and gp160, respectively; purchased American Bio-Technologies, Inc., Cambridge, Mass; host or cells: baculovirus expression system
The assay can be described thus: biochemical. It is filed as binding. The following applies: for Inhibitory activity: Table 1, reaction between HIV-1 gp120 and anti-V3 loop antibodies; for inhibition at 50 µg/mL: read-out: percentage of inhibition. The method, then:
Wells of 96 well polystyrene plates (Immulon 2, Dynatech Laboratories, Inc., Chantilly, Va.) were coated with synthetic peptides (200 μl; 20μg/ml in 0.1 M Tris-HCl, pH 8.8) overnight at 20° C. The peptides were from the sequence of HIV-1, clone BH 10 envelope glycoproteins gp120 and gp41 (Neurath, A. R., Strick, N., and Lee, E. Y. S. (1990), "B-cell Epitope Mapping of Human Immunodeficiency virus (HIV-1) Envelope Glycoprotein with Long (19 to 36-residue) Synthetic Peptides", J. Gen. Virol., 71., 85-95) and from V3 hypervariable loops of 21 distinct HIV-1 isolates (clones) Neurath, A. R., and Strick, N., (1990), "Confronting the Hypervariability of an Immunodominant Epitope Eliciting Virus Neutralizing Antibodies from the Envelope Glycoprotein of the Human Immunodeficiency Virus Type 1 (HIV-1)", Molec. Immunol., 27, 539-549. The latter peptides corresponded to full-length V3 loops generated by disulfide bonds between N- and C- terminal cysteine residues. After washing with 0.14 M NaCl, 0.01 M Tris, 0.02% NaN3 (TS), the wells were postcoated with a mixture of bovine serum albumin (BSA) and gelatine (10 and 2.5 mg/ml, respectively) in TS. BSA was omitted from the postcoating solution for RIA tests in which antibodies to ATA were used. Polystyrene plates coated with recombinant gp120 and gp160, respectively, (500 ng/well; from American Bio-Technologies, Inc., Cambridge, Mass. and MicroGeneSys, Inc., West Haven, Conn., respectively) were also used for RIA and ELISA tests.
To define sites on gp120/gp41 reacting with ATA, the inhibitory effect of this compound was studied by RIA tests using gp120- and gp160-coated wells, respectively, and antisera (final dilutions 1:150) against synthetic peptides from the entire sequence of gp120/gp41 of HIV-1 BH 10. The preparation and biological properties of these antisera were described elsewhere (Neurath et al., (1990), J. Gen. Virol., 71, 85-95). Each of the antisera was diluted in a mixture of fetal bovine serum and goat serum (9:1) containing 0.1% Tween 20, adjusted to pH 8. ATA (final concentration 50 μg/ml) was added in one set of assays, but was omitted from a parallel set. After incubation overnight at 25° C., the plates were washed with TS. Attached rabbit IgG was detected using ^125 I-labeled anti-rabbit IgG, as described before (Neurath et al., 1990, J. Gen. Virol., 71, 85-95). Similarly, the inhibitory effect of ATA on the reaction of peptides derived from gp120/gp41 and of peptides derived from V3 hypervariable loops from gp120 of distinct HIV-1 isolates with the respective homologous anti-peptide antisera was studied. In the latter case, antisera were diluted 1:1,000 for the assays.
The inhibitory effect of ATA and of other compounds on the reaction between antibodies with predetermined specificity and gp120 (or synthetic peptides derived from it) was determined from the formula: [formula] An analogous formula was used to calculate the percentage of inhibition from optical density readings resulting from ELISA tests.
Chemicals other than ATA were screened for inhibitory activity essentially as described above. […] Chemicals with inhibitory activity established by the respective immunoassays were screened further for antiviral activity.
Commercially available ATA is a mixture of monomers and polymers of distinct molecular masses (Gonzalez et al., (1979) Biochem. Biophys. Acta, 562, 534-545); Cushman et al., (1991), J. Chem., 34, 329-337). The monomers [molecular mass (M.W.)=422.4 daltons] were separated from the polymers. ATA (20 mg/ml in the form of free acid neutralized with 0.4 M NaOH) was dialyzed against H2 O in a dialysis membrane with a molecular mass cutoff of 500 daltons.

Another assay relates to HIV-1. The assay can be described thus: Antiviral activity: inhibition of P24 production in MT-2 cells. The note with it: Human immunodeficiency virus 1, MT2, Table 1; for EC50: read-out: EC50 (concentration at which the production of P24 was reduced to 50% of that detected in control cultures); for inhibition: read-out: percentage of inhibition of P24 nucleoprotein production. It is filed as cell-based, HIV-1 IIIB. Further details: inhibition: dose or concentration left out as unconfirmed. How it is done: All chemicals were tested at serial two-fold dilutions (1.25-80 μg/ml, prepared from a stock solution containing 10 mg/ml in dimethylsulfoxide). The chemicals were obtained from Aldrich, Milwaukee, Wis. or were synthesized. Their inhibitory activity was determined by two distinct methods, based on inhibition of synthesis of core protein P24 and on protection by the chemicals of cells against the cytopathic effect of HIV-1 (colorimetric method) respectively.
The chemicals were serially diluted in RPMI 1640 medium without phenol red (GIBCO, Grand Island, N.Y.) containing 10% fetal calf serum (FCS). Aliquots of the diluted solutions were added to wells of 96 well plates and mixed with an equal volume of diluted HIV-1 [multiplicity of infection (MOI) =0.0045]. After incubation for 1 hour at 37° C., 25 μl of polybrene (1 μg/ml) treated MT-2 cells (Harada, S., Koyanagi, Y., Yamamoto, N., (1985), "Infection of HTLV-III/LAV in HTLV-I-carrying Cells MT-2 and MT-4 and Application in a Plaque Assay", Science, 229, 563-566), (5,000 cells/well) were added. The mixture was incubated for 1 hour at 37° C. and the volume was adjusted with RPMI 1640 medium with 10% FCS to 200 μl. On the fourth day after incubation at 37° C., 100 μl of culture supernatants were collected from each well and equal volumes of fresh medium were added to the wells. The supernatants were assayed for P24 using a kit from Coulter Immunology (Hialeah, Fla.). On the sixth day, an indicator XTT tetrazolium dye (1 mg/ml; 50 μl/well; PolySciences, Inc., Warrington, Penna.) was added to the cells. After 4 hours, intracellular formazan was determined colorimetrically at 450 nm.
^c Chemicals with inhibitory activity in ELISA (RIA) tests were teste
^d EC50 = concentration at which the production of P24 was […]

Usually inhibition stands for the relative decrease from the control value, in per cent.

In brackets after ≈: the same amount, converted by molar mass. Bounds are passed on as bounds.
Throughout, for Inhibitory activity: key: Chemicals with inhibitory activity are indicated by +.

Turning to `O=C(O)C1=CC(=C(c2ccc(O)c(C(=O)O)c2)c2ccc(O)c(C(=O)O)c2)C=CC1=O` [compound 122], in assay [1], the Inhibitory activity result is “+”. Besides, in the assay on HIV-1, the EC50 was determined as 12 µg/mL (≈ 28.4 µM) and the inhibition came out at 83%.
On to `CC1=C(CCC(=O)O)c2cc3[nH]c(cc4nc(cc5[nH]c(cc1n2)c(C(O)CO)c5C)C(C(O)CO)=C4C)c(C)c3CCC(=O)O` (centres unmarked) [compound 150], for which, in assay [1], the Inhibitory activity entry is listed as “+” and the inhibition at 50 µg/mL turned out to be 43.3%. Moreover, in the assay with HIV-1, the EC50 is 38.2 µg/mL (≈ 60.6 µM) and the inhibition was determined as 99%.
Regarding `O=C(O)CC(c1ccccc1)(c1ccccc1)c1ccccc1` [compound 2], in assay [1], the Inhibitory activity entry was “+” and the inhibition at 50 µg/mL came out at 27%.
For `O=C(O)C1=CC(I)=CC(=C(c2cc(I)cc(C(=O)O)c2O)c2cc(I)cc(C(=O)O)c2O)C1=O` [compound 131], in assay [1], the Inhibitory activity entry is reported as “+” and the inhibition at 50 µg/mL turned out to be 74.8%. In addition, in the assay with HIV-1, the EC50 was found to be 71 µg/mL (≈ 88.7 µM) and the inhibition came out at 41%.
The corresponding values for `C=CC1=C(C)c2cc3[nH]c(cc4nc(cc5[nH]c(cc1n2)c(C)c5CO)C(C)=C4CCC(=O)O)c(CCC(=O)O)c3C` [compound 152] are “+”, 82.6%, 3 µg/mL (≈ 5.29 µM) and 100%.
The corresponding values for `c1cnc2c(c1)CCCCCCCCCC2` [compound 67] are “+”, 36.8%, 37 µg/mL (≈ 170 µM) and 53%.
The like results for `O=C(O)COc1cc2oc3cc(=O)c(OCC(=O)O)cc-3c(-c3ccccc3)c2cc1OCC(=O)O` [compound 129] were, in that order, “+”, 56.8%, 15 µg/mL (≈ 30.3 µM) and 88%.
As to `CC(=O)C1=CC(=C(c2ccc(O)c(C(C)=O)c2)c2ccc(O)c(C(C)=O)c2)C=CC1=O` [compound 140], in assay [1], the Inhibitory activity result is recorded as “+” and the inhibition at 50 µg/mL was determined as 69.4%.
As for `Nc1ccc2c(c1)Cc1cc(Br)ccc1-2` [compound 63], in assay [1], the Inhibitory activity result was “+” and the inhibition at 50 µg/mL turned out to be 37.1%. Further, in the assay with HIV-1, the EC50 turned out to be 68 µg/mL (≈ 261 µM) and the inhibition came to 19%.
The corresponding values for `O=C1OC(=O)C2C3c4ccccc4C(c4ccccc43)C12` (centres unmarked) [compound 106] are “+”, 77.5%, 18 µg/mL (≈ 65.1 µM) and 82%.
As to `Nc1ccc2c3c(cccc13)-c1ccccc1-2` [compound 65], in assay [1], the Inhibitory activity result is “+” and the inhibition at 50 µg/mL came out at 27.4%. In the assay on HIV-1, the EC50 stood at 3 µg/mL (≈ 13.8 µM) and the inhibition came out at 100%.
In the case of `O=C(O)CNC(c1ccccc1)(c1ccccc1)c1ccccc1` [compound 108], in assay [1], the Inhibitory activity result is given as “+” and the inhibition at 50 µg/mL was 33.5%.
In the case of `CC(C)C[C@H](NC(=O)[C@H](C)NC(=O)[C@H](CC(C)C)NC(c1ccccc1)(c1ccccc1)c1ccccc1)C(=O)O` [compound 114], in assay [1], the Inhibitory activity entry is reported as “+” and the inhibition at 50 µg/mL came out at 62.1%. Further, in the assay with HIV-1, the EC50 was more than 80 µg/mL and the inhibition was 14%.
With `c1ccc(CNc2ccccc2)cc1` [compound 42], in assay [1], the Inhibitory activity result was “+” and the inhibition at 50 µg/mL was found to be 28.8%.
On to `O=C(O)CCC1=C(CC(=O)O)c2cc3[nH]c(cc4nc(cc5[nH]c(cc1n2)c(CCC(=O)O)c5CC(=O)O)C(CC(=O)O)=C4CCC(=O)O)c(CC(=O)O)c3CCC(=O)O` [compound 164], for which, in assay [1], the Inhibitory activity result was “+” and the inhibition at 50 µg/mL is 45%. Moreover, in the assay with HIV-1, the EC50 worked out at 2.3 µg/mL (≈ 2.77 µM) and the inhibition is 100%.
The corresponding values for `O=C(O)c1ccc(-c2c3nc(c(-c4ccc(C(=O)O)cc4)c4ccc([nH]4)c(-c4ccc(C(=O)O)cc4)c4nc(c(-c5ccc(C(=O)O)cc5)c5ccc2[nH]5)C=C4)C=C3)cc1` [compound 160] are “+”, 84.3%, 1.3 µg/mL (≈ 1.64 µM) and 100%.
The like results for `O=c1cc2oc3cc(O)c(O)cc3c(-c3ccccc3)c-2cc1O` [compound 128] were, in that order, “+”, 58.6%, 27 µg/mL (≈ 84.3 µM) and 85%.
The corresponding values for `CC1=C(C(=O)O)C(=O)C(C(C)(C)C)=CC1=C(c1cc(C(C)(C)C)c(O)c(C(=O)O)c1C)c1cc(C(C)(C)C)c(O)c(C(=O)O)c1C` [compound 130] are “+”, 38.6%, 80 µg/mL (≈ 126 µM) and 38%.
`O=Cc1ccc(-c2ccccc2)cc1` [compound 93]: in assay [1], the Inhibitory activity entry was “+” and the inhibition at 50 µg/mL was determined as 21%. Further, in the assay on HIV-1, the EC50 is more than 80 µg/mL and the inhibition worked out at 32%.
The like results for `C=CC1=C(C)c2cc3[nH]c(cc4nc(cc5[nH]c(cc1n2)c(C)c5C=C)C(C)=C4CCC(=O)O)c(CCC(=O)O)c3C` [compound 158] were, in that order, “+”, 55.8%, 1 µg/mL (≈ 1.78 µM) and 100%.
The like results for `C1=Cc2nc1c(-c1ccncc1)c1ccc([nH]1)c(-c1ccncc1)c1nc(c(-c3ccncc3)c3ccc([nH]3)c2-c2ccncc2)C=C1` [compound 161] were, in that order, “+”, 66.4%, more than 80 µg/mL and 0%.
For `Nc1ccccc1-c1ccccc1` [compound 50], in assay [1], the Inhibitory activity entry is “+” and the inhibition at 50 µg/mL was determined as 70.5%.
